Experimental data: patent US20070265269A1, “Water Soluble Esters of [N-(4-Amino-2-Butynyl)] with Anticancer Activity” (priority 2004, published 2007)

Legend:
[1] = system: Fibroblast (Flow 4000, lung fibroblasts); test: toxicity on normal cells, tetrazolium-based proliferation assay (EZ4U kit); type: cell-based; conditions: for % Inhibition of growth: concentration of 1:400, normal cells, Flow 4000 lung fibroblasts, 4 days incubation; for toxicity to fibroblasts: result in words
Experimental: Cells were distributed to the wells of 96 well microtiter plates (10000 cells/well) in tissue culture medium (RPMI-1640 supplemented with 10% fetal bovine serum and 4 mM glutamine) and medium added for controls. Test compounds were added in the reported dilution steps and the plates incubated for 4 days under tissue culture conditions (37° C., 5% CO2).
(§1) Following incubation proliferation was measured using a tetrazolium-based assay (EZ4U kit, Biomedica, Vienna, Austria). Optical densities (OD) of the individual wells was determined with the help of an ELISA-Reader (all values done in triplicate) and the values obtained in medium controls set to 100% (OD490nm=0.5-1.5).
In addition the toxicity of a number of the esters of the invention have been tested on normal cells, Fibroblast (Flow 4000, lung fibroblasts).

[2] = system: panel of human tumour cell lines; test: anti-cancer activity, tetrazolium-based proliferation assay (EZ4U kit) in a panel of tumour cell lines; conditions: result in words
Experimental: For the following test the following cell lines have been used:
Cell lines. Except indicated otherwise all cell lines were obtained from the American Type Culture Collection (ATCC, Rockville, Md.) and grown to confluent monolayers in RPMI-1640 bicarbonate medium (Seromed, Berlin, Germany) in a humidified incubator (5% CO2, 37° C.). Cells were checked for mycoplasma contamination. The medium was supplemented with 10% heat-inactivated fetal bovine serum (Seromed) and 4 mM glutamine. The cells were subcultured by trypsination (0.03% trypsin containing 0.02% EDTA, three times a week). Cell numbers were counted using a TOA Sysmex microcellcounter (TOA, Tokyo, Japan).
Chemicals and solutions. Unless otherwise mentioned, all chemicals were obtained from Sigma (St. Louis, Mo.). Compounds to be tested were used as supplied. CHP was used as 5 mg/ml stock solution in PBS (phosphate buffered saline, Dulbecco) and aliquots were stored frozen at −20° C. Related compounds were used as 2 mg/ml stock solution and stored frozen at −20° C. […]
as §1, with “(OD490nm=0.5-1.5). […]” for “(OD490nm=0.5-1.5).”

Structure (SMILES) | % Inhibition of growth [1] [%] | toxicity to fibroblasts [1] | antitumor activity [2]
CC(=O)OCC#CCN1CCOCC1 [L2, N-(4-morpholino-2-butynyl)acetate] | 18 | low toxicity to fibroblasts | highest antitumor activity
O=C(OCC#CCN1CCOCC1)c1ccccc1 [L4, N-(4-morpholino-2-butynyl)benzoate] | 34.2 |  | 
O=COCC#CCN1CCOCC1 [L6, N-(4-morpholino-2-butynyl)formate] | 37.4 |  | 
CCN(CC)CC#CCOC(C)=O [L9, N-[4-(N,N-diethylamino)-2-butynyl]acetate] | 5.4 |  | 
CC(=O)OCC#CCN(c1ccccc1)c1ccccc1 [L12, N-[4-(N,N-diphenylamino)-2-butynyl]acetate] | −7.6 |  | 
CC(=O)OCC#CCN1CCSCC1 [L13, N-(4-thiomorpholino-2-butynyl)acetate] | 19 |  | 
CCC(=O)OCC#CCN1CCOCC1 [L15, N-(4-morpholino-2-butynyl)propionate] | 13 |  | 
CC(C)(C)C(=O)OCC#CCN1CCOCC1 [L18, N-(4-morpholino-2-butynyl)pivalate] | 7 | low toxicity to fibroblasts | highest antitumor activity
